Results on 19 compounds are retold here after patent US11180474B2 (BRISTOL-MYERS SQUIBB COMPANY, priority 2016, dated 2021).

Each structure is given as a SMILES string. Structures can show the parent of a compound that is named as a salt.

The IC50 is the point on the concentration scale where inhibition reaches its midpoint.

In one test the target is T1, human TLR7 (Homo sapiens, UniProt Q9NYK1).
T1 construct: host or cells: HEK-Blue cells
T1 sequence (Q9NYK1 27-1049): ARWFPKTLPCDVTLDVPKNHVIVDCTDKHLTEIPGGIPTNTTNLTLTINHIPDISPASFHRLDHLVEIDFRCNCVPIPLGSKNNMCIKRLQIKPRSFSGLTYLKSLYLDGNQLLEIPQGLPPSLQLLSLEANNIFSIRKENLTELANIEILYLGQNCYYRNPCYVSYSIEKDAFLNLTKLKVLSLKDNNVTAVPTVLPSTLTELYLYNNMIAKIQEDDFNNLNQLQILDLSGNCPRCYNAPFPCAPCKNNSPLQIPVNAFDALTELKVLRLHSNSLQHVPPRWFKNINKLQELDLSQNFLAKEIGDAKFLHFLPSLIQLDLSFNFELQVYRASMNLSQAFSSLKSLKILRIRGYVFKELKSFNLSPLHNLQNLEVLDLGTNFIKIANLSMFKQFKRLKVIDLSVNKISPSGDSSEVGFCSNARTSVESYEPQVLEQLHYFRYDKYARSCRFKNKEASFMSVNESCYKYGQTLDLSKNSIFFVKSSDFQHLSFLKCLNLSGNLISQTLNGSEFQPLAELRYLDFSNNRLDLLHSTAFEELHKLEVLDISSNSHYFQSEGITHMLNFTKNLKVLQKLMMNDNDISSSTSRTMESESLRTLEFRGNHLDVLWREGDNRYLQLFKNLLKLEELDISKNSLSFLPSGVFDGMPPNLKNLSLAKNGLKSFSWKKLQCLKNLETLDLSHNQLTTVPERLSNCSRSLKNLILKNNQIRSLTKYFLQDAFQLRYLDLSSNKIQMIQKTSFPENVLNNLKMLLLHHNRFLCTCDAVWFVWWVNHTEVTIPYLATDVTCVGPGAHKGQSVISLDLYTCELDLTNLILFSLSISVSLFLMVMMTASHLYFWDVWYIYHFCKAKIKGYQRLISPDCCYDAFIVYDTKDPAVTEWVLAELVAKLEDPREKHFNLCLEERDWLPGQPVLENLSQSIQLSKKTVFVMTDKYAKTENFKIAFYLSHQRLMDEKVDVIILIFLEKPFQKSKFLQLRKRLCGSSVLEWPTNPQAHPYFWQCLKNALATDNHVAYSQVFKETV
Kind of test: TLR7 inhibition reporter assay (HEK-Blue cells, SEAP reporter, gardiquimod stimulation). In kind it is cell-based. Conditions: HEK-Blue cells overexpressing human TLR7, gardiquimod 7.5 μM. An outline of the steps:
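In this cell reporter format, test compounds at 0.05 nM-50 μM final incubate 22 h with seeded cells (TLR7 15000, TLR8 20,000 per well). SEAP read-out by HEK-Blue Detection medium yields % inhibition relative to agonist/DMSO and known-inhibitor wells.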
In general terms: Reporter assays use an easily measured gene product as a stand-in for the process of interest.

The next test addresses T2, human TLR9 (Homo sapiens, UniProt Q9NR96).
T2 construct: host or cells: HEK-Blue cells
T2 sequence (Q9NR96 26-1032): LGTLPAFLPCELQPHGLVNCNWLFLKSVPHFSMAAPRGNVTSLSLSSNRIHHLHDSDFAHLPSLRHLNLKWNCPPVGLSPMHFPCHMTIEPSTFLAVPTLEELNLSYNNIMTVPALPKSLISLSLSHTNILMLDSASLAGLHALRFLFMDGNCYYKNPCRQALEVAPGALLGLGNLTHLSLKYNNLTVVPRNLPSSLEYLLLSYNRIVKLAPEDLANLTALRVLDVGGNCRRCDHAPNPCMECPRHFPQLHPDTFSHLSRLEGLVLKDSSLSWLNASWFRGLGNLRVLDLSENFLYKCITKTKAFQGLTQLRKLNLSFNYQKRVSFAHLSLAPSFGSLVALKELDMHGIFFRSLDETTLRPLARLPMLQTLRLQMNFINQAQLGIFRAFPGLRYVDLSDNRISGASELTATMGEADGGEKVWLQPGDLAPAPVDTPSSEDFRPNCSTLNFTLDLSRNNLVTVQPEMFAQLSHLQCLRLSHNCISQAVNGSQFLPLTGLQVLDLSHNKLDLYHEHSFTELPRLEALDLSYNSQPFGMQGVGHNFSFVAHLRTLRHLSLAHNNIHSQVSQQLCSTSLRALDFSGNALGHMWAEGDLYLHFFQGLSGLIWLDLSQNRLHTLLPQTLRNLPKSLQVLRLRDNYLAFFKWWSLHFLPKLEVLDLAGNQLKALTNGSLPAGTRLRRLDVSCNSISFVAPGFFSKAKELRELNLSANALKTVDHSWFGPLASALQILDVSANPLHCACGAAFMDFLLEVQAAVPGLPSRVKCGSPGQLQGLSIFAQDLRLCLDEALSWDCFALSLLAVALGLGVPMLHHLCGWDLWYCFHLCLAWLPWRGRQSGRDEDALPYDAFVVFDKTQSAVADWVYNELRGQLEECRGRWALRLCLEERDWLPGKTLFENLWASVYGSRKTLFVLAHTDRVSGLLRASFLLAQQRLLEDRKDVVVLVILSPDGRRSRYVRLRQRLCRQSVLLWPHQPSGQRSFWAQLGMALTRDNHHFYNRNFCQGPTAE
The test is described as follows: TLR9 inhibition reporter assay (HEK-Blue cells, SEAP reporter, ODN2006 stimulation). It is filed as cell-based. Conditions: HEK-Blue cells overexpressing human TLR9, ODN2006 5 nM. An outline of the steps:
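Dose–response from 0.05 nM to 50 μM was run in HEK-Blue human TLR7, TLR8 and TLR9 reporter cells. After 30 min at room temperature with compound, ligand was added (TLR7 gardiquimod 7.5 μM; TLR8 R848 15.9 μM; TLR9 ODN2006 5 nM) and SEAP measured next day, at 22 h.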

In the case of `COc1ccc(-c2[nH]c3ccc(C4CCN(C5CCN(C6CCCC(C(F)(F)F)C6)CC5)CC4)cc3c2C)cc1OC` (centres unmarked) [Example 79], the IC50 on human TLR7 turned out to be 2320 nM; against human TLR9 it was 122 nM.

In the case of `CCC(CC)CN1CCC(N2CCC(c3ccc4[nH]c(-c5ccc(OC)c(OC)c5)c(C)c4c3)CC2)CC1` [Example 54, 2-(3,4-dimethoxyphenyl)-5-(1′-(2-ethylbutyl)-[1,4′-bipiperidin]-4-yl)-3-methyl-1H-indole], the results for the IC50 on human TLR7 and on human TLR9 were 595 nM and 238 nM, respectively.

Take `CCc1c(-c2ccc(OC)c(OC)c2)[nH]c2ccc(C3CCN(C(=O)CN4CCN(C(C)=O)CC4)CC3)cc12` [Example 171, 2-(4-acetylpiperazin-1-yl)-1-(4-(2-(3,4-dimethoxyphenyl)-3-ethyl-1H-indol-5-yl)piperidin-1-yl)ethan-1-one]: the IC50 is 488 nM at human TLR7 and no less than 50000 nM against human TLR9.

Regarding `CCc1c(-c2ccc(OC)c(OC)c2)[nH]c2ccc(C3CCN(C(=O)CN4CCCN(C(C)=O)CC4)CC3)cc12` [Example 166, 2-(4-acetyl-1,4-diazepan-1-yl)-1-(4-(2-(3,4-dimethoxyphenyl)-3-ethyl-1H-indol-5-yl)piperidin-1-yl)ethan-1-one], the IC50 worked out at 300 nM against human TLR7 and 6440 nM on human TLR9.

For `COc1ccc(-c2[nH]c3ccc(C4CCN(C5CCCN(CC(C)C)C5)CC4)cc3c2C)cc1OC` (centres unmarked) [Example 417, 2-(3,4-dimethoxyphenyl)-5-(1′-isobutyl-[1,3′-bipiperidin]-4-yl)-3-methyl-1H-indole], the results for the IC50 against human TLR7 and at human TLR9 were 1180 nM and 565 nM, respectively.

Turning to `COc1ccc(-c2[nH]c3ccc(C4CCN(Cc5ccc(N6CCCC6)cc5)CC4)cc3c2C)cc1OC` [Example 46, 2-(3,4-dimethoxyphenyl)-3-methyl-5-(1-(4-(pyrrolidin-1-yl)benzyl)piperidin-4-yl)-1H-indole], the results for the IC50 against human TLR7 and against human TLR9 were 3290 nM and 746 nM, respectively.

As for `COc1ccc(-c2[nH]c3ccc(C4CCN(C5CCNCC5)CC4)cc3c2C)cc1OC` [Example 2, 5-([1,4′-bipiperidin]-4-yl)-2-(3,4-dimethoxyphenyl)-3-methyl-1H-indole dihydrochloride], the IC50 against human TLR7 came out at 985 nM; against human TLR9 it was 206 nM.

As for `COc1ccc(-c2[nH]c3ccc(C4CCN(C5CCN(C6CCN(C)CC6)CC5)CC4)cc3c2C)cc1OC` [Example 81, 2-(3,4-dimethoxyphenyl)-3-methyl-5-(1″-methyl-[1,4′:1′,4″-terpiperidin]-4-yl)-1H-indole], the results for the IC50 on human TLR7 and against human TLR9 were 538 nM and 190 nM, respectively.

Turning to `CCc1c(-c2ccc(OC)c(OC)c2)[nH]c2ccc(C3CCN(C(=O)NC(C)C)CC3)cc12` [Example 182, 4-(2-(3,4-dimethoxyphenyl)-3-ethyl-1H-indol-5-yl)-N-isopropylpiperidine-1-carboxamide], the values for the IC50 on human TLR7 and against human TLR9 were 610 nM and no less than 50000 nM, respectively.

As for `COc1ccc(-c2[nH]c3ccc(C4CCN(Cc5cccn5C)CC4)cc3c2C)cc1OC` [Example 29, 2-(3,4-dimethoxyphenyl)-3-methyl-5-(1-((1-methyl-1H-pyrrol-2-yl)methyl)piperidin-4-yl)-1H-indole], the IC50 against human TLR7 was found to be 1630 nM; at human TLR9 it was 787 nM.

For `COc1ccc(-c2[nH]c3ccc(C4CCN(Cc5cccc(C(F)(F)F)c5)CC4)cc3c2C(C)C)cc1OC` [Example 269, 2-(3,4-dimethoxyphenyl)-3-isopropyl-5-(1-(3-(trifluoromethyl)benzyl)piperidin-4-yl)-1H-indole], the IC50 against human TLR7 stood at 2690 nM; at human TLR9, 18600 nM.

Consider `COc1ccc(-c2[nH]c3ccc(C4CCN(C5CCN(C)CC5)CC4)cc3c2C)cc1OC` [Example 11, 2-(3,4-dimethoxyphenyl)-3-methyl-5-(1′-methyl-[1,4′-bipiperidin]-4-yl)-1H-indole], for which the figures for the IC50 against human TLR7 and on human TLR9 were 934 nM and 216 nM, respectively.

`COc1ccc(-c2[nH]c3ccc(C4CCN(C5CCCC(N(C)C)C5)CC4)cc3c2C)cc1OC` (centres unmarked) [Example 25, 3-(4-(2-(3,4-dimethoxyphenyl)-3-methyl-1H-indol-5-yl)piperidin-1-yl)-N,N-dimethylcyclohexan-1-amine]: the IC50 against human TLR7 turned out to be 317 nM; against human TLR9 it was 169 nM.

`CCCCN1CCC(N2CCC(c3ccc4[nH]c(-c5ccc(OC)c(OC)c5)c(C)c4c3)CC2)CC1` [Example 82, 5-(1′-butyl-[1,4′-bipiperidin]-4-yl)-2-(3,4-dimethoxyphenyl)-3-methyl-1H-indole]: the values for the IC50 on human TLR7 and against human TLR9 were 145 nM and 165 nM, respectively.

As for `COc1ccc(-c2[nH]c3ccc(C4CCNCC4)cc3c2C2CCOCC2)cc1OC` [Example 389, 2-(3,4-dimethoxyphenyl)-5-(piperidin-4-yl)-3-(tetrahydro-2H-pyran-4-yl)-1H-indole], the IC50 on human TLR7 was 300 nM; against human TLR9 it was 1640 nM.

Take `COc1ccc(-c2[nH]c3ccc(C4CCN(C5CCN(C6CCCC(C(F)(F)F)C6)CC5)CC4)cc3c2C)cc1OC` (centres unmarked) [Example 73]: the concentration for half-maximal inhibition (IC50) turned out to be 5090 nM against human TLR7 and 100 nM against human TLR9.

Regarding `CCN(C)CCN1CCC(c2ccc3[nH]c(-c4ccc(OC)c(OC)c4)c(C)c3c2)CC1` [Example 111, 2-(4-(2-(3,4-dimethoxyphenyl)-3-methyl-1H-indol-5-yl)piperidin-1-yl)-N-ethyl-N-methylethan-1-amine], the IC50 at human TLR7 came out at 387 nM; against human TLR9, 1510 nM.

For `COc1ccc(-c2[nH]c3ccc(C4CCN(CCN(C)CC5CC5)CC4)cc3c2C)cc1OC` [Example 112, N-(cyclopropylmethyl)-2-(4-(2-(3,4-dimethoxyphenyl)-3-methyl-1H-indol-5-yl)piperidin-1-yl)-N-methylethan-1-amine], the IC50 against human TLR7 was 250 nM; on human TLR9, 319 nM.

On to `COc1ccc(-c2[nH]c3ccc(C4CCN(C5CCCN(C6COC6)CC5)CC4)cc3c2C)cc1OC` (centres unmarked) [Example 96, 2-(3,4-dimethoxyphenyl)-3-methyl-5-(1-(1-(oxetan-3-yl)azepan-4-yl)piperidin-4-yl)-1H-indole], for which the IC50 on human TLR7 was found to be 2530 nM; on human TLR9, 186 nM.
